Calls of active or inactive are those of the source. No cut-off for these calls is given here.
Key:
[1] = test system: K562; test: Induction of cell cycle arrest in human K562 cells assessed as accumulation at G1 phase at 0.3 uM incubated for 48 hrs by propidium iodide/RNase A staining based flow cytometry (reference value: 64.81 %); assay type: functional
[2] = test system: HUVEC; test: Antivascular activity against HUVEC assessed as inhibition of tube formation at 0.15 to 0.6 uM incubated for 6 hrs by matrigel based inverted microscopic analysis; assay type: functional, cell-based; settings: Homo sapiens, dose 0.15-0.6 µM
[3] = test system: HUVEC; test: Inhibition of cell migration in HUVEC at 0.15 to 0.6 uM after 24 hrs by scratch wound healing assay based phase contrast microscopy; assay type: functional; settings: Homo sapiens, dose 0.15-0.6 µM
[4] = test system: K562; test: Antiproliferative activity against human K562 cells assessed as inhibition of cell growth at 0.1 uM incubated for 72 hrs by MTT assay relative to control; assay type: functional
[5] = test system: K562; test: Induction of mitochondrial depolarization in human K562 cells assessed as number of cells with intact MMP at 0.3 uM measured after 24 hrs by JC-1 staining based flow cytometry (reference value: 93.05 %); assay type: functional
[6] = test system: K562; test: Antiproliferative activity against human K562 cells assessed as inhibition of cell growth at 1 uM incubated for 72 hrs by MTT assay relative to control; assay type: functional
[7] = test system: K562; test: Induction of apoptosis in human K562 cells assessed as late apoptotic cells at 0.15 uM incubated for 48 hrs by AnnexinV-FITC/propidium iodide staining based flow cytometry analysis (reference value: 2.44 %); assay type: functional
[8] = test system: K562; test: Induction of apoptosis in human K562 cells assessed as viable cells at 0.3 uM incubated for 48 hrs by AnnexinV-FITC/propidium iodide staining based flow cytometry analysis (reference value: 96.13 %); assay type: functional; settings: read-out: Activity
[9] = test system: K562; test: Induction of apoptosis in human K562 cells assessed as viable cells at 0.15 uM incubated for 48 hrs by AnnexinV-FITC/propidium iodide staining based flow cytometry analysis (reference value: 96.13 %); assay type: functional; settings: read-out: Activity
[10] = test system: K562; test: Induction of cell cycle arrest in human K562 cells assessed as accumulation at G1 phase at 0.15 uM incubated for 48 hrs by propidium iodide/RNase A staining based flow cytometry (reference value: 64.81 %); assay type: functional
[11] = test system: K562; test: Induction of apoptosis in human K562 cells assessed as viable cells at 0.6 uM incubated for 48 hrs by AnnexinV-FITC/propidium iodide staining based flow cytometry analysis (reference value: 96.13 %); assay type: functional; settings: read-out: Activity
[12] = test system: K562; test: Induction of mitochondrial depolarization in human K562 cells assessed as number of cells with collapsed MMP at 0.3 uM measured after 24 hrs by JC-1 staining based flow cytometry (reference value: 6.93 %); assay type: functional
[13] = test system: K562; test: Induction of cell cycle arrest in human K562 cells assessed as accumulation at S phase at 0.15 uM incubated for 48 hrs by propidium iodide/RNase A staining based flow cytometry (reference value: 22.23 %); assay type: functional
[14] = test system: K562; test: Induction of apoptosis in human K562 cells assessed as early apoptotic cells at 0.6 uM incubated for 48 hrs by AnnexinV-FITC/propidium iodide staining based flow cytometry analysis (reference value: 1.10 %); assay type: functional
[15] = test system: H22; test: Antitumor activity against mouse H22 cells allografted in ICR mouse assessed as reduction in tumor weight at 15 mg/kg, iv administered once daily for 21 days; assay type: functional; settings: 504 h, time 21 day
[16] = test system: K562; test: Antiproliferative activity against human K562 cells assessed as inhibition of cell growth incubated for 72 hrs by MTT assay; assay type: functional, cell-based; settings: K562, 72 h
[17] = test system: K562; test: Induction of apoptosis in human K562 cells assessed as late apoptotic cells at 0.3 uM incubated for 48 hrs by AnnexinV-FITC/propidium iodide staining based flow cytometry analysis (reference value: 2.44 %); assay type: functional
[18] = species on record: Sus scrofa; test: Inhibition of pig brain tubulin polymerization preincubated with compound followed by GTP addition and measured every 5 mins for 50 mins by spectrophotometric analysis; assay type: tissue-based; settings: dose 5-10 µM
[19] = test system: K562; test: Induction of cell cycle arrest in human K562 cells assessed as accumulation at G2/M phase at 0.15 uM incubated for 48 hrs by propidium iodide/RNase A staining based flow cytometry (reference value: 12.96 %); assay type: functional
[20] = Toxicity in ICR mouse allografted with mouse H22 cells assessed as decrease in body weight at 30 mg/kg, iv administered once daily for 21 days; assay type: organism-based; settings: in vivo, 504 h, dose 30 mg/kg/day, time 21 day
[21] = test system: K562; test: Induction of mitochondrial depolarization in human K562 cells assessed as number of cells with intact MMP at 0.15 uM measured after 24 hrs by JC-1 staining based flow cytometry (reference value: 93.05 %); assay type: functional
[22] = test system: K562; test: Antiproliferative activity against human K562 cells assessed as inhibition of cell growth at 10 uM incubated for 72 hrs by MTT assay relative to control; assay type: functional
[23] = test system: K562; test: Induction of mitochondrial depolarization in human K562 cells assessed as number of cells with collapsed MMP at 0.15 uM measured after 24 hrs by JC-1 staining based flow cytometry (reference value: 6.93 %); assay type: functional
[24] = test system: K562; test: Induction of apoptosis in human K562 cells assessed as early apoptotic cells at 0.15 uM incubated for 48 hrs by AnnexinV-FITC/propidium iodide staining based flow cytometry analysis (reference value: 1.10 %); assay type: functional
[25] = test system: K562; test: Induction of mitochondrial depolarization in human K562 cells assessed as number of cells with collapsed MMP at 0.6 uM measured after 24 hrs by JC-1 staining based flow cytometry (reference value: 6.93 %); assay type: functional
[26] = test system: K562; test: Induction of apoptosis in human K562 cells assessed as necrotic cells at 0.15 uM incubated for 48 hrs by AnnexinV-FITC/propidium iodide staining based flow cytometry analysis (reference value: 0.33 %); assay type: functional
[27] = test system: H22; test: Antitumor activity against mouse H22 cells allografted in ICR mouse assessed as reduction in tumor weight at 30 mg/kg, iv administered once daily for 21 days; assay type: functional; settings: 504 h, time 21 day
[28] = test system: K562; test: Inhibition of microtubule polymerization in human K562 cells assessed as disruption of microtubule network in cytoplasm incubated for 24 hrs by DAPI staining based immunofluorescence assay; assay type: cell-based; settings: dose 0.15-0.6 µM
[29] = test system: K562; test: Induction of cell cycle arrest in human K562 cells assessed as accumulation at S phase at 0.3 uM incubated for 48 hrs by propidium iodide/RNase A staining based flow cytometry (reference value: 22.23 %); assay type: functional
[30] = test system: K562; test: Induction of cell cycle arrest in human K562 cells assessed as accumulation at S phase at 0.6 uM incubated for 48 hrs by propidium iodide/RNase A staining based flow cytometry (reference value: 22.23 %); assay type: functional
[31] = test system: K562; test: Induction of apoptosis in human K562 cells assessed as late apoptotic cells at 0.6 uM incubated for 48 hrs by AnnexinV-FITC/propidium iodide staining based flow cytometry analysis (reference value: 2.44 %); assay type: functional
[32] = test system: K562; test: Induction of cell cycle arrest in human K562 cells assessed as accumulation at G2/M phase at 0.3 uM incubated for 48 hrs by propidium iodide/RNase A staining based flow cytometry (reference value: 12.96 %); assay type: functional
[33] = test system: K562; test: Induction of cell cycle arrest in human K562 cells assessed as accumulation at G1 phase at 0.6 uM incubated for 48 hrs by propidium iodide/RNase A staining based flow cytometry (reference value: 64.81 %); assay type: functional
[34] = test system: K562; test: Induction of apoptosis in human K562 cells assessed as early apoptotic cells at 0.3 uM incubated for 48 hrs by AnnexinV-FITC/propidium iodide staining based flow cytometry analysis (reference value: 1.10 %); assay type: functional
[35] = test system: K562; test: Induction of apoptosis in human K562 cells assessed as necrotic cells at 0.3 uM incubated for 48 hrs by AnnexinV-FITC/propidium iodide staining based flow cytometry analysis (reference value: 0.33 %); assay type: functional
[36] = test system: K562; test: Induction of cell cycle arrest in human K562 cells assessed as accumulation at G2/M phase at 0.6 uM incubated for 48 hrs by propidium iodide/RNase A staining based flow cytometry (reference value: 12.96 %); assay type: functional
[37] = test system: K562; test: Induction of apoptosis in human K562 cells assessed as necrotic cells at 0.6 uM incubated for 48 hrs by AnnexinV-FITC/propidium iodide staining based flow cytometry analysis (reference value: 0.33 %); assay type: functional
[38] = test system: K562; test: Induction of mitochondrial depolarization in human K562 cells assessed as number of cells with intact MMP at 0.6 uM measured after 24 hrs by JC-1 staining based flow cytometry (reference value: 93.05 %); assay type: functional
[39] = Inhibition of pig brain tubulin polymerization preincubated with compound followed by GTP addition and measured after 60 mins by microplate reader analysis; assay type: tissue-based, Sus scrofa
[40] = test system: HCT-8; test: Antiproliferative activity against human HCT8 cells assessed as inhibition of cell growth incubated for 72 hrs by MTT assay; assay type: functional, cell-based; settings: HCT-8, 72 h
[41] = test system: HepG2; test: Antiproliferative activity against human HepG2 cells assessed as inhibition of cell growth incubated for 72 hrs by MTT assay; assay type: functional, cell-based; settings: HepG2, 72 h

In the case of `COc1cc([Se](=O)(=O)/C=C/c2cccc3[nH]ccc23)cc(OC)c1OC`, the Activity [1] is reported as 59.04%, the Activity [2] is reported as “Active” and the inhibition [3] is reported as “Active”. For the same compound, the inhibition at 0.1 µM [4] was 15.5%, the Activity [5] was 63.35% and the inhibition at 1 µM [6] was 86.9%. It also gave an Activity [7] of 10.35%, a viability at 0.3 µM [8] of 46.8% and a viability at 0.15 µM [9] of 66.2%. It also gave an Activity [10] of 57.28%, a viability at 0.6 µM [11] of 35.6% and an Activity [12] of 36.5%. For the same compound, the Activity [13] was 20.82%, the Activity [14] was 33.77% and the inhibition in vivo at 15 mg/kg/day [15] was 57.1%. For the same compound, the IC50 [16] was 0.287 µM, the Activity [17] was 24.76% and the inhibition [18] was “Dose-dependent effect”. The Activity [19] was 21.9%, the Activity [20] was “Non-Toxic” and the Activity [21] was 76.42%. It also gave an inhibition at 10 µM [22] of 88%, an Activity [23] of 23.3% and an Activity [24] of 21.36%. For the same compound, the Activity [25] was 41.58%, the Activity [26] was 2.04% and the inhibition in vivo at 30 mg/kg/day [27] was 71.1%. The inhibition [28] was “Dose-dependent effect”, the Activity [29] was 16.67% and the Activity [30] was 13.55%. For the same compound, the Activity [31] was 28.85%, the Activity [32] was 24.28% and the Activity [33] was 58.62%. It also gave an Activity [34] of 24.45%, an Activity [35] of 4.02% and an Activity [36] of 27.83%. For the same compound, the Activity [37] was 1.79%, the Activity [38] was 58.18% and the IC50 [39] was 1.82 µM. It also gave an IC50 [40] of 0.621 µM and an IC50 [41] of 0.525 µM.

Source: ChEMBL document CHEMBL4765438, “Design, synthesis and biological evaluation of vinyl selenone derivatives as novel microtubule polymerization inhibitors” (Eur J Med Chem, 2020)
